# Literature values in US10983136B2 (DiaSorin S.p.A., priority 2013, dated 2021).
# Legend:
# [1] = biological target: T1, vitamin D binding protein (DBP) (Homo sapiens, UniProt P02774); settings: association constant
# T1 sequence (P02774 17-474): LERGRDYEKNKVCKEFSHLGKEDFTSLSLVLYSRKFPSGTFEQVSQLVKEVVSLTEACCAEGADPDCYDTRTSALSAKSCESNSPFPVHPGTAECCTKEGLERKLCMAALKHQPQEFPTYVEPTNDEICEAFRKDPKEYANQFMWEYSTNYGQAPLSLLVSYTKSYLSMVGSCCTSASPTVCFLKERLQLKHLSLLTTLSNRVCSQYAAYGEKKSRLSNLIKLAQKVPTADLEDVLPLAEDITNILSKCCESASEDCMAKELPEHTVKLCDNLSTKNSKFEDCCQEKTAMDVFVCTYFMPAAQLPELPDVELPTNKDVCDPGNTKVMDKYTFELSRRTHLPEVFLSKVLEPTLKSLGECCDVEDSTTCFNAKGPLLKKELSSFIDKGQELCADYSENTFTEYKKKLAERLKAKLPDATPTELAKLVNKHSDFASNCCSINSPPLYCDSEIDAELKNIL
# [2] = biological target: T1, vitamin D binding protein (DBP); settings: same pH value (above 6, preferably above 7)
# [3] = in circulation, under normal circumstances
Compound,Ka (affinity of DBP) [1] [M⁻¹],"greater affinity of DBP for 25(OH)D over 1,25(OH)2D [2]",free form [3]
vitamin D,4e+07,,
"C=C1CC[C@H](O)C/C1=C/C=C1\CCC[C@]2(C)[C@@H]([C@H](C)CCCC(C)(C)O)CC[C@@H]12 [25(OH)D, 25-hydroxyvitamin D]",5e+08,about 1000 fold,approximately 0.03%
"C=C1/C(=C\C=C2/CCC[C@]3(C)[C@@H]([C@H](C)CCCC(C)(C)O)CC[C@@H]23)C[C@@H](O)C[C@@H]1O [1,25(OH)2D, 1,25-dihydroxyvitamin D]",,,approximately 0.4%
